This data set in a line: In-house compatibility observations of the actives with acids / 2,4-D amine salt solution. It is filed as physicochemical. From the text:
Secondary amine salt formulations diethanolamine, diisopropanolamine) of 2,4-D and other herbicides containing a carboxylic acid function (2,4,5-T, ticlopyr, dicamba, picloram, aminopyralid, others) are extremely hydrophilic, being normally conveyed as a concentrated aqueous solution of high pH to avoid crystallization of the salt/free acid. […] As discussed, these active ingredients have physical-chemical features that make it difficult for them to be used together in the same formulation. In addition to this is the easy decomposition through base-catalyzed hydrolysis, of active ingredients containing the ester function, such as lactofen, if they were soluble or emulsified in an alkaline solution, as is the case of the aqueous solution of amine salts of 2,4-D. This effect was observed when lactofen was dissolved in a naphthenic organic solvent and then emulsified in a solution of 2,4-D dimethylamine salt. Shortly afterwards, lactofen had been decomposed even under mild temperature conditions, which made it impossible to provide this mixture under these conditions as a commercial product. It is also mentioned that, although the degradation kinetics may be different, compounds containing an ester group, such as lactofen, can also undergo solvolysis (hydrolysis if the solvent is water) in the presence of acids, which makes it impossible for lactofen to be transported with 2,4-D without neutralization of the latter by an alkaline compound. Bispyribac sodium is also a compound that easily degrades under different conditions. […] Bispyribac sodium is also known to only remain stable at pH levels close to neutral or slightly alkaline (7 to 9) and at temperatures around 25° C. and in the dark, with an acceleration of degradation under conditions other than these. These features of lactofen and bispyribac sodium make it difficult for one to develop formulations with other active ingredients, which may justify the absence of commercial products with these associated active ingredients.

In the case of `COc1cc(OC)nc(Oc2cccc(Oc3nc(OC)cc(OC)n3)c2C(=O)O)n1` [Bispyribac sodium, bispyribac sodium], the “degradation in the presence of acids” value (even in the absence of water, observed internally) is reported as “degrades easily”. Further, the “degradation in the presence of unneutralized 2,4-D” value (high acidity of 2,4-D) is “fully degraded”.

In the case of `CCOC(=O)C(C)OC(=O)c1cc(Oc2ccc(C(F)(F)F)cc2Cl)ccc1[N+](=O)[O-]` (stereo not drawn) [Lactofen, lactofen], the “decomposition when emulsified in a solution of 2,4-D dimethylamine salt” value (dissolved in naphthenic organic solvent, emulsified in 2,4-D dimethylamine salt solution, mild temperature) is on record as “decomposed”.
